Experiments:
[1] = biological target: T1, Tyrosinase (Agaricus bisporus, UniProt O42713); assay: Inhibition of mushroom tyrosinase at 2.4 uM
T1 sequence (O42713 whole entry): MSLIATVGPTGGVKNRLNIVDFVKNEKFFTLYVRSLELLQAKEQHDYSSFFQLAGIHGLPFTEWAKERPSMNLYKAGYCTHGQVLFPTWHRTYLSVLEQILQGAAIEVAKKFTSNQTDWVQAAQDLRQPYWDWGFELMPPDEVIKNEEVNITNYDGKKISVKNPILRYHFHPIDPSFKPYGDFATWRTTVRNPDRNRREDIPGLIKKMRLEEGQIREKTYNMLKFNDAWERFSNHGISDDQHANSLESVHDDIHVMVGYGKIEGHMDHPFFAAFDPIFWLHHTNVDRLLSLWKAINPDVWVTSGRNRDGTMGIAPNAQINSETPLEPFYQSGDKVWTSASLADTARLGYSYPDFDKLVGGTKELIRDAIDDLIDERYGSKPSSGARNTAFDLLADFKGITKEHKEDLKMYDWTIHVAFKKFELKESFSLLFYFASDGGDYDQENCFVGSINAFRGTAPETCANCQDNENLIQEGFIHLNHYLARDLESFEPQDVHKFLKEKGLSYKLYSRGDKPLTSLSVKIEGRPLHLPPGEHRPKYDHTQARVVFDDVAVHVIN

[2] = Cytotoxicity against human BC cells at 20 ug/ml; assay type: cell-based
[3] = test system: KB; assay: Cytotoxicity against human KB cells at 20 ug/ml; assay type: cell-based
[4] = Cytotoxicity against human NCI-H187 cells at 20 ug/ml; assay type: cell-based
[5] = biological target: Tyrosinase (Agaricus bisporus); assay: Inhibition of tyrosinase
[6] = biological target: T1, Tyrosinase; assay: Inhibition of mushroom tyrosinase at 1.2 uM
[7] = Cytotoxicity against human BC cells; assay type: cell-based
[8] = Cytotoxicity against human NCI-H187 cells; assay type: cell-based
[9] = test system: KB; assay: Cytotoxicity against human KB cells; assay type: cell-based
[10] = biological target: T1, Tyrosinase; assay: Inhibition of mushroom tyrosinase at 9.2 uM
[11] = biological target: T1, Tyrosinase; assay: Inhibition of mushroom tyrosinase at 18.4 uM

| IC50 [5] | Compound | Activity [2] | Activity [3] | Activity [4] | IC50 [7] | IC50 [8] | IC50 [9] | other results |
| --- | --- | --- | --- | --- | --- | --- | --- | --- |
| > 100 µM | COc1cc(O)cc(/C=C/c2ccc(O)cc2OC)c1 |  |  |  | 10.8 µM | 10.9 µM | 5.5 µM |  |
|  | Oc1cc(O)cc(/C=C/c2ccc(O)cc2O)c1 [OXYRESVERATROL] | < 50% | < 50% | < 50% |  |  |  | Ki [10]: 22 µM; Ki [11]: 28 µM |
|  | COc1cc(/C=C/c2ccc(OC)cc2OC)cc(OC)c1 |  |  |  | 5.6 µM | 8 µM | 8.6 µM |  |
| > 100 µM | COc1cc(O)ccc1/C=C/c1cc(O)cc(O)c1 |  | < 50% | < 50% | 66.6 µM |  |  |  |
|  | Cc1c2ccncc2c(C)c2c1[nH]c1ccccc12 [ELLIPTECINE] |  |  |  | 2.7 µM | 1.9 µM | 2.4 µM |  |
|  | COc1cc(/C=C\c2ccc(OC)cc2OC)cc(OC)c1 |  |  |  | 1 µM | 0.3 µM | 0.3 µM |  |
| > 100 µM | COc1cc(CCc2ccc(OC)cc2OC)cc(OC)c1 | < 50% | < 50% | < 50% |  |  |  |  |
| > 100 µM | COc1cc(O)cc(/C=C/c2ccc(OC)cc2O)c1 |  |  |  | 13.9 µM | 33.5 µM | 16.5 µM |  |
|  | COc1cccc2c1C(=O)c1c(O)c3c(c(O)c1C2=O)C[C@@](O)(C(=O)CO)C[C@@H]3O[C@H]1C[C@H](N)[C@H](O)[C@H](C)O1 [DOXORUBICIN] |  |  |  | 0.5 µM | 0.1 µM |  |  |

| Compound | IC50 [5] | Activity [2] | Activity [3] | Activity [4] | IC50 [7] | IC50 [8] | IC50 [9] | other results |
| --- | --- | --- | --- | --- | --- | --- | --- | --- |
| Oc1cc(O)cc(CCc2ccc(O)cc2O)c1 | 1.6 µM | < 50% | < 50% | < 50% |  |  |  | Ki [1]: 5.6 µM; Ki [6]: 4.8 µM |

Source: ChEMBL document CHEMBL1139674 (Bioorg Med Chem Lett, 2006)
